Patent publication US20150352232A1, “MR IMAGING DIAGNOSTIC AGENT FOR INTRACTABLE NEUROLOGICAL DISEASE” (SHIGA UNIVERSITY OF MEDICAL SCIENCE, priority 2013, published 2015)
Entries after “also recorded” stand apart in the source; their conditions may differ.

Assays:
[1] = biological target: T1, senile plaques (Homo sapiens, UniProt P05067); assay: 19F-MR image measurement of the brain after tail vein injection (Test Example 1); assay type: in vivo, mouse; settings: 200 mg/kg tail vein, three-hour measurement beginning five hours after injection, 7T
T1 construct: Spots of amyloid β, which forms senile plaques; tissue Jackson Laboratory; host or cells: brain of live APP/PS1 double transgenic mice
Protocol: Compound 1 was weighed out in an amount of 10 mg, and 0.125 ml of 80% Tween-80 was added thereto, followed by dissolution using a glass rod under heating. Subsequently, 0.875 ml of physiological saline was added thereto to prepare a solution for injection (10 mg/ml). The solution was injected in a total amount of 200 mg/kg at […] to the tail vein of each of the genetically modified model mice of Alzheimer's disease (APP/PS1) and the normal wild mice (Wild), which had been subjected to pentobarbital sodium anesthesia. As the genetically modified model mice of Alzheimer's disease (APP/PS1), amyloid precursor protein and presenilin 1 double transgenic mice (APP/PS1, purchased from Jackson Laboratory and bred) were used. After the completion of the injection, under anesthesia, the head of each mouse was continuously evaluated every hour using an MRI apparatus, and all data were added to form images. The brain image of ^19F-MRI was obtained according to the chemical shift imaging method (CSI method). As the MRI apparatus, a 7T Unity Inova MR Scanner (produced by Varian Medical System) was used. Each of the genetically modified model mice of Alzheimer's disease (APP/PS1) and normal wild mice (Wild) were injected with Compound 1. […] FIGS. 1A and 1C are ^19F-MRI images, and FIGS. 1B and 1D are composite photos of ^19F-MRI and ^1H-MRI images.

[2] = biological target: Aβ oligomers (Homo sapiens, UniProt P05067); assay: Analysis of binding property using QCM apparatus, sensor with Aβ oligomers fixed (Test Example 3); settings: final concentration 10 μM in PBS
Protocol: (§1) Aβ oligomers or Aβ fibrils were fixed to the sensor portion of the QCM apparatus, and immersed in PBS in a glass container. Subsequently, Compound 8 or Compound 1 was added thereto to a final concentration of 10 μM, and a frequency change was recorded from immediately after the addition.

[3] = biological target: T2, Aβ fibrils (Homo sapiens, UniProt P05067); assay: Analysis of binding property using QCM apparatus, sensor with Aβ fibrils fixed (Test Example 3); settings: final concentration 10 μM in PBS
T2 construct: Aβ oligomers or Aβ fibrils were fixed to the sensor portion of the QCM apparatus
Protocol: as §1

T2 sequence (P05067 672-713 limits assumed): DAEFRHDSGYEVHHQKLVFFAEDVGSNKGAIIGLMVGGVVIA
Sequence of Aβ oligomers (P05067 672-713 limits assumed): as above
T1 sequence (P05067 672-713 limits assumed): as above

| Structure (SMILES) | 19F-MR signals presumed to be senile plaques inside of the brain ([1]; genetically modified model mice of Alzheimer's disease (APP/PS1)) | 19F-MR signals presumed to be senile plaques inside of the brain ([1]; normal wild mouse (Wild)) | binding to Aβ oligomers (conclusion from QCM) [2] | binding to Aβ fibrils (conclusion from QCM) [3] | QCM frequency change, sensor with Aβ fibrils fixed (Fibrillar) compared to Control [3] |
| --- | --- | --- | --- | --- | --- |
| CN(C)c1ccc(/C=C/c2nc3ccc(OCCOCCOCCOCCOCCOCCOCCOCC(F)(F)F)cc3o2)cc1 [Compound 1, 6-(3′,6′,9′,12′,15′,18′,21′-heptaoxa-23′,23′,23′-trifluorotricosanyloxy)-2-(4′-dimethylaminostyryl)benzoxazole] | signals presumed to be senile plaques were detected inside of the brain | such signals were not detected | does not bind to Aβ oligomers | binds to Aβ fibrils | – |
| COC(=O)CCC(C(=O)/C=C/c1ccc(O)c(OC(F)(F)F)c1)C(=O)/C=C/c1ccc(O)c(OC(F)(F)F)c1 [Compound 8] | – | – | binding to both Aβ oligomers and Aβ fibrils | binding to both Aβ oligomers and Aβ fibrils | significant frequency reduction; also recorded: frequency reduction was observed |
